One assay relates to chemokine receptor CCR6. Also noted: method as in PMID 12840147. To be noted: binding and activation of CCR6; cited from earlier work.
The conditions of assay [1]: cited from earlier work. The text has this: (§1) Three characteristic disulfide bonds stabilize the defensins’ structure and are essential for some, but not all functions of the peptides. […] This is likely because the preserved defensin structure is required in the later case, when the cell wall synthesis machinery is targeted, but not in the former case, when defensins directly affect membranes of Gram-negative bacteria. In contrast, reduction of disulfi ...

Assay [2] deals with TEV Protease. It is filed as binding, tobacco etch virus (TEV). To be noted: DSF. An excerpt:
(§2) Differential scanning fluorimetry (DSF)

For assay [3], the system named is Gram-negative and Gram-positive bacteria. The settings on record: reduction of disulfide bonds; cited from earlier work.
From the text: as §1

The test system of assay [4] is HIV-1 CA. To be noted: DSF, 5-fold molar excess of cyclotide. On the technique in general: Differential scanning fluorimetry follows unfolding on heating by fluorescence.
Procedure: (§3) Viral protein samples (5–20 μM) in a 20 mM 4-(2-hydroxyethyl)-1-piperazineethanesulfonic acid (HEPES) buffer (pH 7.5) supplemented with 150 mM NaCl and 1x SYPRO Orange dye (Invitrogen) were subjected to temperature denaturation in the absence or presence of defensins. […] Temperature melting profiles were acquired with a CFX96 Touch Real-Time PCR Detection System (Bio-Rad). Melting temperatures for proteins alone and in the presence of different defensins were calculated as described previously[76].
Assay [5] relates to PFV IN. It is filed as binding, prototype foamy virus (PFV). To be noted: DSF, 5-fold molar excess of cyclotide.
From the text: as §2

Assay [6] concerns Actin Crosslinking Domain (ACD). It is filed as binding, Vibrio cholerae. To be noted: 5-molar excess of peptide to the toxin.
A further assay concerns HIV-1 Gag-Δp6. The settings on record: DSF, 5-fold molar excess of cyclotide.
In assay [7] the test system is HIV-1 IN. To be noted: DSF, 5-fold molar excess of cyclotide.
Procedure: as §3
Another assay relates to HIV-1 MA. To be noted: 10 μM MA, 3-fold molar excess HNP-1, chymotrypsin (1:100 w/w) or thermolysin (1:200 w/w), 37 °C, 20 mM HEPES pH 7.5, 100 mM NaCl, 5 mM CaCl2, SDS-PAGE.
Assay [8] has as its system gp41. To be noted: cited from earlier work.
In assay [9] the test system is TEV Protease. It is filed as biochemical, tobacco etch virus (TEV). The settings on record: disulfide bonds reduced with 10 mM TCEP, one hour pre-incubation at room temperature. On the procedure:
TEV protease activity assay
The reactions were stopped by boiling in reducing sample buffer; proteolytic products were resolved on SDS-PAGE. For reducing condition experiments, the reaction buffer was supplemented with 10 mM tris(2-carboxyethyl)phosphine (TCEP) and the defensins were pre-incubated with 10 mM TCEP for one hour at room temperature before co-incubation with the TEV protease. Note, the ammonium salt of TCEP (Sigma #646547) used in this study has neutral pH (7.0). Care was taken to verify that the final pH of the working solutions was not changed after the addition of TCEP.

Assay [10] relates to HIV-1 CA. To be noted: 10 μM CA, 3-fold molar excess HNP-1, chymotrypsin (1:100 w/w) or thermolysin (1:200 w/w), 37 °C, 20 mM HEPES pH 7.5, 100 mM NaCl, 5 mM CaCl2, SDS-PAGE.
Procedure: (§4) Briefly, viral proteins (5–10 μM) were mixed with 3-fold molar excess of HNP-1 (i.e. 15–30 μM) in a 20 mM HEPES buffer (pH 7.5) supplemented with 100 mM NaCl and 5 mM CaCl2. […] The reactions were stopped by adding reducing sample buffer (50 mM Tris, pH 6.8, 10% glycerol, 2% sodium dodecyl sulfate (SDS), 100 mM β-mercaptoethanol, 0.1% bromophenol blue) supplemented with 2 mM phenylmethylsulfonyl fluoride (PMSF) and 10 mM ethylenediaminetetraacetic acid (EDTA) and boiling for 5 min. The protein samples were resolved on SDS-PAGE.
Assay [11] deals with PFV IN. Also noted: species or system prototype foamy virus (PFV). The settings on record: 5 μM PFV IN, 3-fold molar excess HNP-1, chymotrypsin (1:100 w/w) or thermolysin (1:200 w/w), 37 °C, 20 mM HEPES pH 7.5, 100 mM NaCl, 5 mM CaCl2, SDS-PAGE. On the procedure:
Limited proteolysis was conducted as described previously. […] The protein samples were resolved on SDS-PAGE.

Assay [12] has as its system gp41. The settings on record: cited from earlier work. The source holds these as a separate data set.
Assay [13] relates to TEV Protease. Also noted: species or system tobacco etch virus (TEV). To be noted: 10 μM protein; HNP-1 20 and 50 μM or RC-101 30 and 60 μM; 30 min, […] °C, pH 7.5, 100 mM NaCl; 280,000 g, SDS-PAGE.
Procedure: Precipitation of HIV-1 MA, HIV-1 CA, and TEV protease was assessed by differential ultracentrifugation. […] All samples were centrifuged using TLA-100 rotor in Optima TL-100 ultracentrifuge (Beckman Coulter) at 280,000 g for 30 min at 4 °C. The supernatant (soluble) and pellet (precipitated) fractions were collected, supplemented with 1/3rd of the volume of 4x reducing sample buffer (200 mM Tris, pH 6.8, 40% glycerol, 8% SDS, 400 mM β-mercaptoethanol, 0.4% bromophenol blue), pellets resuspended, and samples resolved on SDS-PAGE.
In a further assay the test system is HIV-1. The settings on record: cited from earlier work.
The subject of assay [14] is HIV-1 IN. To be noted: HTRF; IN 400 nM; defensin 1–10 μM, 30 min room temperature; strand transfer three hours 37 °C, pH 7.5.
Procedure: Homogenous time-resolved fluorescence (HTRF)-based integration activity assay
To test the HIV-1 integrase (IN) activity in the presence and absence of defensins, previously developed HTRF technique[41][42] was used with some modifications. […] Following the incubation with the defensins, a 5′-Cy5-labelled 21-mer viral donor DNA (200 nM) and 3′-biotinylated target DNA (20 nM) were added to the reaction. […] 0.5 M NaCl (final concentration in the development solution) allows dissociating of all DNA from IN to prevent FRET signal from non-covalently associated donor and target DNA. Following an overnight incubation at 4 °C, the HTRF signal was recorded with an EnSpire multimode plate reader (PerkinElmer).
For the next assay, the system named is HSV. Also noted: method as in PMID 17142766. To be noted: cited from earlier work.
Another assay concerns dengue virus DENV-2. Also noted: method as in PMID 23171075. The settings on record: activity greatly increased with elevated temperature; cited from earlier work.
Assay [15] relates to gp41-derived peptide mixture of N36/C34. Also noted: method as in PMID 16648135. The settings on record: cited from earlier work.
A further assay relates to serine protease. Also noted: method as in PMID 23171075. The settings on record: greatly increased with elevated temperature; cited from earlier work.
A further assay has as its system Ad5.F35 capsid. To be noted: CryoEM; with signs of local disorganization of hexon, penton base, fiber; cited from earlier work. An excerpt: It is likely that the potent destabilizing effects imposed by defensins are pertinent at numerous physiological occasions and particularly upon dynamic structural transitions in the course of capsid assembly, uncoating, and membrane fusion. Yet, we are far from proposing that the destabilization of purified viral proteins by defensins observed in vitro accurately represents the complexity of physiological conditions including, but not limited to, interactions of viral proteins with each other, viral nucleic acids, and host proteins. Thus, in apparent contradiction with our resu ...

The values that follow come from paper PMC5007486, “Thermodynamic instability of viral proteins is a pathogen-associated molecular pattern targeted by human defensins” (Scientific Reports, 2016).

Where no end group is shown, it is not given here.

Procedure for HIV-1 Gag-Δp6: as §3
Procedure for HIV-1 MA: as §4

In the case of “hBD-3: human beta-defensin 3 (GIINTLQKYYCRVRGGRCAVLSCLPKEEQIGKCSTRGRKCCRRKK; ends and bridges not checked; cysteine pairing not given here; UniProt P81534 23-67, looked up)”, the “Need of disulfide bonds for chemotactic activity” value with chemokine receptor CCR6 is recorded as “required for its chemotactic activity”. In assay [1], the “Need of disulfide bonds for antimicrobial activity” value was “dispensable for its antimicrobial activity”.

Turning to “hBD-1: human β-defensin hBD-1, prepared by solid-phase peptide synthesis (DHYNCVSSGGQCLYSACPIFTKIQGTCYRGKAKCCK; ends and bridges not checked; cysteine pairing not given here; UniProt P60022 33-68, looked up)”, in the assay on TEV Protease [2] (reduced β-defensin, 10 mM TCEP), the “Effect on thermal melting of TEV protease, reducing conditions” value is on record as “had no effect on thermal melting”. Also, in [3], the “Effect of disulfide reduction on antimicrobial activity” value is “activates hBD-1 antimicrobial activity against both Gram-negative and Gram-positive bacteria”.

For the molecule kalata B1 [kB1], in the assay on TEV Protease [2] (5-fold molar excess of cyclotide), the “Ability to potentiate unfolding of TEV protease” value is “none of the four cyclotides used in this study (cyO2, cyO19, kB1, and kB7) demonstrated an ability to potentiate unfolding”. Also, the “Ability to potentiate unfolding of HIV-1 CA” value with HIV-1 CA [4] is “none of the four cyclotides used in this study (cyO2, cyO19, kB1, and kB7) demonstrated an ability to potentiate unfolding”. For the same molecule, the “Ability to potentiate unfolding of PFV IN” value in the assay with PFV IN [5] is “none of the four cyclotides used in this study (cyO2, cyO19, kB1, and kB7) demonstrated an ability to potentiate unfolding”. In [6], the “Unfolding / DSF thermal denaturation profile of ACD toxin” value was “none of the four cyclotides used in this study (cyO2, cyO19, kB1, and kB7) demonstrated an ability to potentiate unfolding”. In addition, the “Ability to potentiate unfolding of HIV-1 Gag-Δp6” value with HIV-1 Gag-Δp6 was “none of the four cyclotides used in this study (cyO2, cyO19, kB1, and kB7) demonstrated an ability to potentiate unfolding”. For the same molecule, the “Ability to potentiate unfolding of HIV-1 IN” value with HIV-1 IN [7] is “none of the four cyclotides used in this study (cyO2, cyO19, kB1, and kB7) demonstrated an ability to potentiate unfolding”.

As to “HNP-1: human neutrophil α-defensin peptide HNP-1, prepared by solid-phase peptide synthesis”, the “Detectable amounts of cleaved products of HIV-1 MA” value in the assay with HIV-1 MA is on record as “drastic reduction in the detectable amounts of cleaved products”. Besides, the “Refolding lifetime of gp41 intermediates in pre-hairpin conformation” value in the assay with gp41 [8] was “prolong refolding lifetime of gp41 intermediates in pre-hairpin conformation”. In the assay on TEV Protease [2] (disulfide bonds reduced with 10 mM TCEP), the “Ability to promote unfolding of TEV protease, reducing conditions” value is given as “complete loss”. Also, the “Ability to inhibit proteolytic activity of TEV protease, reducing conditions” value in the assay on TEV Protease [9] is reported as “complete loss”. Further, in the assay on HIV-1 CA [10], the “Detectable amounts of cleaved products of HIV-1 CA” value is given as “drastic reduction in the detectable amounts of cleaved products”. Besides, the “Detectable amounts of cleaved products of PFV IN” value in the assay on PFV IN [11] was “drastic reduction in the detectable amounts of cleaved products”. Moreover, the “Refolding of gp41 into 6-helix bundle” value in the assay with gp41 [12] was “impaired refolding of gp41 into the 6-helix bundle structure triggering their aggregation”. In addition, in the assay on TEV Protease [13], the “Precipitation of TEV protease” value is on record as “dose-dependent precipitation”. For the same molecule, in the assay with HIV-1, the HIV-1 infection entry is “inhibit HIV-1 and HSV infections at multiple steps”. For the same molecule, in the assay with HIV-1 IN [14], the “Strand transfer activity of HIV-1 IN” value is listed as “inhibited the strand transfer activity of IN”. Besides, in the assay with HSV, the HSV infection entry was “inhibit HIV-1 and HSV infections at multiple steps”.

For retrocyclin-1 [RC-1], in the assay on dengue virus DENV-2, the “Dengue virus DENV-2 replication” value is recorded as “inhibits dengue virus DENV-2 replication”. Also, in assay [15], the “Circular dichroism spectrum of N36/C34” value is on record as “transformed into a random coil-like spectrum”. Moreover, in the assay with gp41 [12], the “Refolding of gp41 into 6-helix bundle” value is “impaired refolding of gp41 into the 6-helix bundle structure triggering their aggregation”. The “DENV-2 serine protease activity” value in the assay with serine protease is reported as “interfering with the activity of its serine protease”.

B1: HD-5: human enteric α-defensin HD-5, prepared by solid-phase peptide synthesis (peptide, UniProt Q01523 20-94, looked up)
Defensin alpha 5: ESLQERADEATTQKQSGEDNQDLAISFAGNGLSALRTSGSQARATCYCRTGRCATRESLSGVCEISGRLYRLCCR
modifications: Defensin-5
notes: human enteric α-defensin HD-5, prepared by solid-phase peptide synthesis
For the molecule B1, the “Stability of Ad5.F35 capsid” value in the assay with Ad5.F35 capsid is “overall stabilization of Ad5.F35 capsid”.
